Results published in ChEMBL document CHEMBL1201862, “PubChem BioAssay data set” (2004).
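Interpolation was linear, between the two tested concentrations surrounding the appropriate level; five concentrations were tested over 48 hours in 96-well plates. At the GI50, growth is halved.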 The source made the active and inactive calls. Rule as the data show it: active = GI50 up to about 1.1 µM and inactive = higher.

Legend:
Test in all cases: growth of human tumour cells (NCI), 48 h
Hs-578T = test system: Hs-578T
UACC-257 = test system: UACC-257
LOX IMVI = test system: LOX IMVI
RPMI-8226 = test system: RPMI-8226
SNB-75 = test system: SNB-75
HCT-15 = test system: HCT-15
MDA-MB-231 = test system: MDA-MB-231
HOP-62 = test system: HOP-62
OVCAR-5 = test system: OVCAR-5
SK-MEL-2 = test system: SK-MEL-2
UO-31 = test system: UO-31
SR = test system: SR
KM12 = test system: KM12
TK-10 = test system: TK-10
CCRF-CEM = test system: CCRF-CEM
HCT-116 = test system: HCT-116
A549 = test system: A549
A498 = test system: A498
EKVX = test system: EKVX
NCI-H23 = test system: NCI-H23
MOLT-4 = test system: MOLT-4
SK-MEL-5 = test system: SK-MEL-5
OVCAR-8 = test system: OVCAR-8
SF-268 = test system: SF-268
SNB-19 = test system: SNB-19
PC-3 = test system: PC-3
SF-539 = test system: SF-539
ACHN = test system: ACHN
MCF7 = test system: MCF7
HOP-92 = test system: HOP-92
SF-295 = test system: SF-295
Malme-3M = test system: Malme-3M
K562 = test system: K562
SN12C = test system: SN12C
MDA-MB-435 = test system: MDA-MB-435
COLO 205 = test system: COLO 205
786-0 = test system: 786-0
T47D = test system: T47D
SW-620 = test system: SW-620
NCI/ADR-RES = test system: NCI/ADR-RES
HT-29 = test system: HT-29
NCI-H522 = test system: NCI-H522
RXF 393 = test system: RXF 393
CAKI-1 = test system: CAKI-1
NCI-H226 = test system: NCI-H226
OVCAR-4 = test system: OVCAR-4
BT-549 = test system: BT-549
HCC 2998 = test system: HCC 2998
M14 = test system: M14
SK-MEL-28 = test system: SK-MEL-28
DU-145 = test system: DU-145
OVCAR-3 = test system: OVCAR-3
UACC-62 = test system: UACC-62
IGROV-1 = test system: IGROV-1
SK-OV-3 = test system: SK-OV-3
MDA-N = test system: MDA-N
U-251 = test system: U-251
NCI-H460 = test system: NCI-H460

COc1cccc2c(N)c3cccc(C(=O)NCCN(C)C)c3nc12
GI50 (Hs-578T): 0.0746 µM (active) | GI50 (UACC-257): 0.701 µM (active) | GI50 (LOX IMVI): 0.0513 µM (active) | GI50 (RPMI-8226): 0.221 µM (active) | GI50 (SNB-75): 0.0944 µM (active) | GI50 (HCT-15): 1.38 µM | GI50 (MDA-MB-231): 0.214 µM (active) | GI50 (HOP-62): 0.0578 µM (active) | GI50 (OVCAR-5): 0.344 µM (active) | GI50 (SK-MEL-2): 0.447 µM (active) | GI50 (UO-31): 0.462 µM (active) | GI50 (SR): 0.0152 µM (active) | GI50 (KM12): 0.252 µM (active) | GI50 (TK-10): 0.439 µM (active) | GI50 (CCRF-CEM): < 0.01 µM (active) | GI50 (HCT-116): 0.0748 µM (active) | GI50 (A549): 0.0233 µM (active) | GI50 (A498): 0.281 µM (active) | GI50 (EKVX): 0.174 µM (active) | GI50 (NCI-H23): 0.132 µM (active) | GI50 (MOLT-4): < 0.01 µM (active) | GI50 (SK-MEL-5): 0.367 µM (active) | GI50 (OVCAR-8): 0.134 µM (active) | GI50 (SF-268): 0.0659 µM (active) | GI50 (SNB-19): 0.134 µM (active) | GI50 (PC-3): 0.326 µM (active) | GI50 (SF-539): 0.135 µM (active) | GI50 (ACHN): 0.0991 µM (active) | GI50 (MCF7): 0.0146 µM (active) | GI50 (HOP-92): 0.163 µM (active) | GI50 (SF-295): 0.297 µM (active) | GI50 (Malme-3M): 0.0927 µM (active) | GI50 (K562): 0.0415 µM (active) | GI50 (SN12C): 0.0389 µM (active) | GI50 (MDA-MB-435): 0.422 µM (active) | GI50 (COLO 205): 0.13 µM (active) | GI50 (786-0): 0.0339 µM (active) | GI50 (T47D): 0.274 µM (active) | GI50 (SW-620): 0.0968 µM (active) | GI50 (NCI/ADR-RES): 0.979 µM (active) | GI50 (HT-29): 0.053 µM (active) | GI50 (NCI-H522): 0.0241 µM (active) | GI50 (RXF 393): 0.213 µM (active) | GI50 (CAKI-1): 0.103 µM (active) | GI50 (NCI-H226): 0.11 µM (active) | GI50 (OVCAR-4): 0.157 µM (active) | GI50 (BT-549): 1.19 µM (inactive) | GI50 (HCC 2998): 0.179 µM (active) | GI50 (M14): 0.432 µM (active) | GI50 (SK-MEL-28): 1.27 µM (inactive) | GI50 (DU-145): 0.261 µM (active) | GI50 (OVCAR-3): 0.369 µM (active) | GI50 (UACC-62): 0.357 µM (active) | GI50 (IGROV-1): 0.22 µM (active) | GI50 (SK-OV-3): 0.233 µM (active) | GI50 (MDA-N): 0.321 µM (active) | GI50 (U-251): 0.159 µM (active)

CC1=C2C(=O)OCC23C=COC3(C)O1 (stereo not given)
GI50 (Hs-578T): 50.4 µM (inactive) | GI50 (UACC-257): 32.7 µM (inactive) | GI50 (LOX IMVI): 30.3 µM (inactive) | GI50 (RPMI-8226): 32.5 µM (inactive) | GI50 (SNB-75): 24.8 µM (inactive) | GI50 (HCT-15): 26.2 µM | GI50 (MDA-MB-231): 18.6 µM (inactive) | GI50 (HOP-62): 34.2 µM (inactive) | GI50 (OVCAR-5): 47.1 µM (inactive) | GI50 (SK-MEL-2): 32.6 µM (inactive) | GI50 (UO-31): 30.8 µM (inactive) | GI50 (SR): 8.38 µM (inactive) | GI50 (KM12): 26.9 µM (inactive) | GI50 (TK-10): 42 µM (inactive) | GI50 (CCRF-CEM): 33.5 µM (inactive) | GI50 (HCT-116): 26.9 µM (inactive) | GI50 (A549): 66.7 µM (inactive) | GI50 (A498): 43.3 µM (inactive) | GI50 (EKVX): 35.7 µM (inactive) | GI50 (NCI-H23): 39 µM (inactive) | GI50 (MOLT-4): 21.4 µM (inactive) | GI50 (SK-MEL-5): 18 µM (inactive) | GI50 (OVCAR-8): 35.4 µM (inactive) | GI50 (SF-268): 60.7 µM (inactive) | GI50 (SNB-19): 58.9 µM (inactive) | GI50 (PC-3): 38.2 µM (inactive) | GI50 (SF-539): 21.2 µM (inactive) | GI50 (ACHN): 34.3 µM (inactive) | GI50 (MCF7): 36.2 µM (inactive) | GI50 (HOP-92): 45 µM (inactive) | GI50 (SF-295): 41.4 µM (inactive) | GI50 (Malme-3M): 27.9 µM (inactive) | GI50 (K562): 31.8 µM (inactive) | GI50 (SN12C): 37.7 µM (inactive) | GI50 (MDA-MB-435): 20.7 µM (inactive) | GI50 (COLO 205): 21.5 µM (inactive) | GI50 (786-0): 35.6 µM (inactive) | GI50 (T47D): 29.3 µM (inactive) | GI50 (SW-620): 26.2 µM (inactive) | GI50 (NCI/ADR-RES): 34.9 µM (inactive) | GI50 (HT-29): 29.3 µM (inactive) | GI50 (NCI-H522): 29.1 µM (inactive) | GI50 (RXF 393): 31.4 µM (inactive) | GI50 (CAKI-1): 37 µM (inactive) | GI50 (NCI-H226): 28.4 µM (inactive) | GI50 (OVCAR-4): 29.4 µM (inactive) | GI50 (BT-549): 44.4 µM (inactive) | GI50 (HCC 2998): 69.3 µM (inactive) | GI50 (M14): 24.7 µM (inactive) | GI50 (SK-MEL-28): 20.4 µM (inactive) | GI50 (NCI-H460): 48.4 µM (inactive) | GI50 (DU-145): 39.4 µM (inactive) | GI50 (OVCAR-3): 33.4 µM (inactive) | GI50 (UACC-62): 19.4 µM (inactive) | GI50 (IGROV-1): 32.7 µM (inactive) | GI50 (SK-OV-3): 46 µM (inactive) | GI50 (MDA-N): 29 µM (inactive) | GI50 (U-251): 25.4 µM (inactive)
